Compound in one assay: NC(=O)CCCCC1CCSS1 [lipoamide]
Briefly: thermal stability z-score vs DMSO; higher = more thermally stabilized by treatment. Conditions: HeLa, lipoamide concentration 100 µM. How it is done: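 Cellular thermal proteome profiling in HeLa cells. Cells were treated with 100 µM lipoamide for 1 h, with or without 1 mM arsenate for a further 1 h, then heated to ten temperatures (37-66.3 °C), and soluble protein was quantified by TMT mass spectrometry relative to 0.1% DMSO controls. The thermal stability score (sum of log2 fold changes minus the abundance score) was transformed to a z-score; mean of n = 3 experiments.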

Compound in a further assay: O=[As]([O-])(O)O.[K+] [potassium arsenate]
The assay is described as above. Conditions: HeLa; arsenate concentration 1 mM. The protocol:
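Cellular thermal proteome profiling in HeLa cells treated with 1 mM arsenate for 1 h (DMSO pretreatment), heated to ten temperatures (37-66.3 °C). Soluble protein was quantified by TMT mass spectrometry relative to DMSO controls; the thermal stability score was transformed to a z-score; mean of n = 3 experiments.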

[1] abbreviates: arsenate co-treatment: 1 mM arsenate 1 h.
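Note: each temperature applied for 3 min, abundance score taken as mean log2 fold change at the two lowest temperatures, z-score obtained by mean subtraction and division by SD.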

Sequence of UniProt Q9BW62 (Q9BW62 whole entry): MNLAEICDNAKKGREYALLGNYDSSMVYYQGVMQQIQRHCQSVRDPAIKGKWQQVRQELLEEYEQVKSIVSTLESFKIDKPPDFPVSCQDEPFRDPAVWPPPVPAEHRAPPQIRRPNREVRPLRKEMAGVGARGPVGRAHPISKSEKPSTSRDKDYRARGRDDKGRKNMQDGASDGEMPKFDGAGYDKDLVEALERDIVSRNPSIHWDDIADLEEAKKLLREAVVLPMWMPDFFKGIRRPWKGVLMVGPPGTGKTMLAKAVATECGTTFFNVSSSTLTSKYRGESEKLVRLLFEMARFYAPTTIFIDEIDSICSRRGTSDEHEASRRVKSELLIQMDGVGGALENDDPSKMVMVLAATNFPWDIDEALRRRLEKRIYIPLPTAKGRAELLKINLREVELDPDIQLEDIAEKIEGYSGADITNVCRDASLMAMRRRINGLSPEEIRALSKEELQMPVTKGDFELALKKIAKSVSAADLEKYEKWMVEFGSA
Sequence of UniProt Q8N9B5 (Q8N9B5 whole entry): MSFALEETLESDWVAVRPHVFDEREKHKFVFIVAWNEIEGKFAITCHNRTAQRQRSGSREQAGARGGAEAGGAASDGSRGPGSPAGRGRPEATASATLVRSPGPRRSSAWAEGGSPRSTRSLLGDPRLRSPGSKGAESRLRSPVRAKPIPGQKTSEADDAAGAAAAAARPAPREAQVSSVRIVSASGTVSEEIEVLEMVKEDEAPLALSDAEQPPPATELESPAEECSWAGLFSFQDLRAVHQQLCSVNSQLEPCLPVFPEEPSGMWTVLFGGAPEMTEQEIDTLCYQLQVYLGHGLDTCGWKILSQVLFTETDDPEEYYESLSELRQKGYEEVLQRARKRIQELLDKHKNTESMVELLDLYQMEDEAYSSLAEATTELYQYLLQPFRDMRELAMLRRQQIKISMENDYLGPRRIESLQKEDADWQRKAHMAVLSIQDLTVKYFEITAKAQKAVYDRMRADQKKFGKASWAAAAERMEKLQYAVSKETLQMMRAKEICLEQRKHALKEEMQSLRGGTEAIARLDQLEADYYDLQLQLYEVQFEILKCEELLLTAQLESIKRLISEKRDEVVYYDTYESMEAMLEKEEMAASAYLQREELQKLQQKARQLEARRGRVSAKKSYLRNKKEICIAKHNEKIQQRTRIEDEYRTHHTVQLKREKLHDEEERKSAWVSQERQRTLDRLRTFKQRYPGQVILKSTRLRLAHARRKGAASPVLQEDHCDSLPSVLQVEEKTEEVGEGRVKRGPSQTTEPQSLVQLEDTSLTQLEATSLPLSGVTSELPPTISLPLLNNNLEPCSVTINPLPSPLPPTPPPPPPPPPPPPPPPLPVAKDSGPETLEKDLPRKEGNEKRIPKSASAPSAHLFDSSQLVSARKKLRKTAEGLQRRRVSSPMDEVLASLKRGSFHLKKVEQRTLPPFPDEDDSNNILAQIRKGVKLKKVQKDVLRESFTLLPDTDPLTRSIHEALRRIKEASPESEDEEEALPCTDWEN
Sequence of UniProt Q15046 (Q15046 whole entry, looked up): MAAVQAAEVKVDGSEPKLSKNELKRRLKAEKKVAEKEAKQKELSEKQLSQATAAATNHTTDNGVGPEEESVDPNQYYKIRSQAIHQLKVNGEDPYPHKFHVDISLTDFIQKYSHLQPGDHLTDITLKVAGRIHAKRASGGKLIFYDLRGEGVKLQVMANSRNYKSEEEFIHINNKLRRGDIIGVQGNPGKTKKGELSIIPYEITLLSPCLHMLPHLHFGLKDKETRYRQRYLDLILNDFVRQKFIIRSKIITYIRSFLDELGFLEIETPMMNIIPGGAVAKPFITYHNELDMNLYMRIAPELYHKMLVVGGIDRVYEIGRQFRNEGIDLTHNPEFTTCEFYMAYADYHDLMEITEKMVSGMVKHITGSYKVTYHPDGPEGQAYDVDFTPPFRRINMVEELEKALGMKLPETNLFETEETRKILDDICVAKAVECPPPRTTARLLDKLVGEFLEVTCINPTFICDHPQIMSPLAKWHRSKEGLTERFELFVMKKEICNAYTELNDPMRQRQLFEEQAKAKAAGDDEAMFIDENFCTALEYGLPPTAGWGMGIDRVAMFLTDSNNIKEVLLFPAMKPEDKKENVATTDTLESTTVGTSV
Sequence of UniProt Q86V97 (Q86V97 whole entry): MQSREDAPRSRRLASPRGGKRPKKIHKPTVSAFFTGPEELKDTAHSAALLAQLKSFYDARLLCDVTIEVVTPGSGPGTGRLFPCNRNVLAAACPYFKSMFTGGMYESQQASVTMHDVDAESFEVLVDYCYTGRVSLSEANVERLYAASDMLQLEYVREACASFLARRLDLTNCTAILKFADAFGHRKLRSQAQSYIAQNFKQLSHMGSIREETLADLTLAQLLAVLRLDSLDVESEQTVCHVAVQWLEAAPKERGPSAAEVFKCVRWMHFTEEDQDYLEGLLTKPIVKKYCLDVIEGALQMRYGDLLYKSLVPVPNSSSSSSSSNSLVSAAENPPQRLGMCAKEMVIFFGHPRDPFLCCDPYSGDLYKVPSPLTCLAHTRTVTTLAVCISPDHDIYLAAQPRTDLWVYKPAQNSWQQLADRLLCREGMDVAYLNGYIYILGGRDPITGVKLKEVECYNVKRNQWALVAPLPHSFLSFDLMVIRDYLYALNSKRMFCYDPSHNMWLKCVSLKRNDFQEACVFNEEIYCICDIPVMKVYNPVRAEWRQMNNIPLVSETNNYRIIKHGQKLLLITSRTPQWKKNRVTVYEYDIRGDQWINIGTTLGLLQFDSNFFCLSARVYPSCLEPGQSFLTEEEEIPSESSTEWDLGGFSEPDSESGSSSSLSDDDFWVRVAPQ
Sequence of UniProt Q92613 (Q92613 whole entry): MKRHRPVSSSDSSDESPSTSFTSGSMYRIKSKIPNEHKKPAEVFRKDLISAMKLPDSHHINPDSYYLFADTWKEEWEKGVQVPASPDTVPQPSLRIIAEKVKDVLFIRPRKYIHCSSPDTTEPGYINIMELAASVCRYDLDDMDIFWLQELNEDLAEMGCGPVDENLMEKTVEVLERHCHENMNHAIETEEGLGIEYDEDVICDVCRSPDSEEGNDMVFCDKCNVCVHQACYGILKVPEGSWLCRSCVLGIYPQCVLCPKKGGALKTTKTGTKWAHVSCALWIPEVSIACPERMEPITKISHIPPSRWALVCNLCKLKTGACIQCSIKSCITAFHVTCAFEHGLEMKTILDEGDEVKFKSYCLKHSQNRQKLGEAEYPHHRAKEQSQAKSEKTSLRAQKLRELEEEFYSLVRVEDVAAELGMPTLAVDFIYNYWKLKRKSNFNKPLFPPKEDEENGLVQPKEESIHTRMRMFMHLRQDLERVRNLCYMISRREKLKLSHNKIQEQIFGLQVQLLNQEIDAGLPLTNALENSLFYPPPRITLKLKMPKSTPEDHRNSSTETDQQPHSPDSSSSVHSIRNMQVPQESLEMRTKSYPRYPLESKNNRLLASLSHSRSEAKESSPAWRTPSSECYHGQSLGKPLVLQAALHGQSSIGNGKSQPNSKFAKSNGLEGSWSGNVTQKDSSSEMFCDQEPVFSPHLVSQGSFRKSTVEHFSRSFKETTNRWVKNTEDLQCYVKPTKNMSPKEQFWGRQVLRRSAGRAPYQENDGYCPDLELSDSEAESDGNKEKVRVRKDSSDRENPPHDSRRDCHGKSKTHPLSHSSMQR
Sequence of UniProt Q9NXV2 (Q9NXV2 whole entry): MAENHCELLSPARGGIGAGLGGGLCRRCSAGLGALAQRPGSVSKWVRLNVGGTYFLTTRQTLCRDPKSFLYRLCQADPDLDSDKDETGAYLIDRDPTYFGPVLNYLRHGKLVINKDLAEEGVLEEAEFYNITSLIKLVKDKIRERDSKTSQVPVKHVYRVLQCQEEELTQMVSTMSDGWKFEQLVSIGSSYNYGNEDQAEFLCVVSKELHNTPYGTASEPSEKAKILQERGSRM
Sequence of UniProt Q96SI1 (Q96SI1 whole entry): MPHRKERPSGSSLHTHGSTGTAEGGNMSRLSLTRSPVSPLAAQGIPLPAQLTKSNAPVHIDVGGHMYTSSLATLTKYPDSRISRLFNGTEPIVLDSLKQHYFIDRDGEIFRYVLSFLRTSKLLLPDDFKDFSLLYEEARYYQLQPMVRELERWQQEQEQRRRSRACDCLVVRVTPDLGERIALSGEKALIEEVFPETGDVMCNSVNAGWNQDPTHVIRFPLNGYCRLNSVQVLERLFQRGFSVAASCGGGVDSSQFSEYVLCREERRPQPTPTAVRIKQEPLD
Sequence of UniProt Q9H9V9 (Q9H9V9 whole entry): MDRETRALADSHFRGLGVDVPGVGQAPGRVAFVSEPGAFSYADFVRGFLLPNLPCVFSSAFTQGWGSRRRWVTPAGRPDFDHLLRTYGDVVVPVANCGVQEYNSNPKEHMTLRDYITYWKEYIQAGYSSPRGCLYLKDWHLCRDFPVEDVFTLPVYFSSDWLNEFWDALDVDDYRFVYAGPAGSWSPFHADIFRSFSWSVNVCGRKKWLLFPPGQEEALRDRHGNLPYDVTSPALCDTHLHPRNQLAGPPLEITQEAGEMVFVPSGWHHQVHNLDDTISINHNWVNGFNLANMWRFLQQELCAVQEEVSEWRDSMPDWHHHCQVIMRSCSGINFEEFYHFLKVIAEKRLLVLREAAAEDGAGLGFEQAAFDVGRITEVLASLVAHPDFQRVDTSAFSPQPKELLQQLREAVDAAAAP
Sequence of UniProt Q7L273 (Q7L273 whole entry): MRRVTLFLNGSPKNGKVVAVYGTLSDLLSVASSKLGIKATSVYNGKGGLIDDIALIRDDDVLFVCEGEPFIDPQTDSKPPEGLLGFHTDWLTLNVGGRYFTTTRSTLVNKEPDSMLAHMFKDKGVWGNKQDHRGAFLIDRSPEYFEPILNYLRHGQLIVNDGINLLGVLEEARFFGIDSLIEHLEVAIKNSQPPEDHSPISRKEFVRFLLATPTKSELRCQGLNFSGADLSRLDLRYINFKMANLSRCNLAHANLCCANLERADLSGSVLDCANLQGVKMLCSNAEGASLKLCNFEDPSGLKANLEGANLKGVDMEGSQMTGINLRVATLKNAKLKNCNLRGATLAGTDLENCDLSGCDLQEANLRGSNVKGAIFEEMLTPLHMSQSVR

For IVNS1ABP (UniProt Q9Y6Y0), the values for the thermal stability z-score with lipoamide (setting [1]), with lipoamide (arsenate co-treatment: none) and with potassium arsenate were 0.601, 0.743 and -0.145, respectively.

As for IWS1 (UniProt Q96ST2), the figures for the thermal stability z-score with lipoamide (setting [1]), in the assay with lipoamide (arsenate co-treatment: none) and with potassium arsenate were -0.094, 0.636 and 0.949, respectively.

With JADE3 (UniProt Q92613), the figures for the thermal stability z-score with lipoamide (setting [1]), with lipoamide (arsenate co-treatment: none) and in the assay with potassium arsenate were -0.12, 0.143 and -0.474, respectively.

Turning to JAK1 (UniProt P23458), the thermal stability z-score was -0.359 with lipoamide (setting [1]), 0.296 with lipoamide (arsenate co-treatment: none) and 0.123 with potassium arsenate.

JMJD1C (UniProt Q15652): the thermal stability z-score was 0.559 with lipoamide (setting [1]), -0.396 in the assay with lipoamide (arsenate co-treatment: none) and -0.398 in the assay with potassium arsenate.

As to JMJD4 (UniProt Q9H9V9), the thermal stability z-score was 0.073 in the assay with lipoamide (setting [1]), 0.027 in the assay with lipoamide (arsenate co-treatment: none) and 0.0203 with potassium arsenate.

JMJD6 (UniProt Q6NYC1): the thermal stability z-score with lipoamide (setting [1]) was -0.363; in the assay with lipoamide (arsenate co-treatment: none), 0.15; with potassium arsenate, 0.606.

As for JMY (UniProt Q8N9B5), the thermal stability z-score in the assay with lipoamide (setting [1]) was -0.0736; with lipoamide (arsenate co-treatment: none), -0.168; with potassium arsenate, -0.323.

JPH1 (UniProt Q9HDC5): the figures for the thermal stability z-score with lipoamide (setting [1]), with lipoamide (arsenate co-treatment: none) and with potassium arsenate were 0.0376, 0.0934 and -0.105, respectively.

For JTB (UniProt O76095), the thermal stability z-score is 0.634 with lipoamide (setting [1]), 0.0713 with lipoamide (arsenate co-treatment: none) and 0.688 in the assay with potassium arsenate.

As to JUNB (UniProt P17275), the thermal stability z-score was 0.208 with lipoamide (setting [1]), 0.791 with lipoamide (arsenate co-treatment: none) and -1.55 with potassium arsenate.

In the case of JUP (UniProt P14923), the thermal stability z-score in the assay with lipoamide (setting [1]) was 2.23; with lipoamide (arsenate co-treatment: none) it was 2.78; with potassium arsenate it was 1.07.

KANK1 (UniProt Q14678): the thermal stability z-score with lipoamide (setting [1]) came out at 0.282; in the assay with lipoamide (arsenate co-treatment: none) it was 0.616; in the assay with potassium arsenate, 0.739.

Regarding KANK2 (UniProt Q63ZY3), the values for the thermal stability z-score in the assay with lipoamide (setting [1]), in the assay with lipoamide (arsenate co-treatment: none) and with potassium arsenate were -0.0369, 0.0732 and -0.109, respectively.

Regarding KARS (UniProt Q15046), the thermal stability z-score is -0.646 with lipoamide (setting [1]), -0.663 with lipoamide (arsenate co-treatment: none) and 1.5 in the assay with potassium arsenate.

KAT7 (UniProt O95251): the thermal stability z-score is 0.116 in the assay with lipoamide (setting [1]), -0.0536 with lipoamide (arsenate co-treatment: none) and -0.144 with potassium arsenate.

With KAT8 (UniProt Q9H7Z6), the figures for the thermal stability z-score with lipoamide (setting [1]), with lipoamide (arsenate co-treatment: none) and in the assay with potassium arsenate were 0.773, -0.409 and -0.509, respectively.

For the target KATNA1 (UniProt O75449), the thermal stability z-score was -0.664 with lipoamide (setting [1]), 0.155 with lipoamide (arsenate co-treatment: none) and -0.539 in the assay with potassium arsenate.

Regarding KATNAL1 (UniProt Q9BW62), the results for the thermal stability z-score with lipoamide (setting [1]), with lipoamide (arsenate co-treatment: none) and with potassium arsenate were 0.798, -0.886 and -0.0764, respectively.

KATNB1 (UniProt Q9BVA0): the thermal stability z-score in the assay with lipoamide (setting [1]) was 0.145; with lipoamide (arsenate co-treatment: none) it was 0.401; in the assay with potassium arsenate it was -0.452.

Consider KATNBL1 (UniProt Q9H079), for which the thermal stability z-score is 0.226 in the assay with lipoamide (setting [1]), 0.62 with lipoamide (arsenate co-treatment: none) and 0.427 in the assay with potassium arsenate.

Turning to KBTBD2 (UniProt Q8IY47), the figures for the thermal stability z-score with lipoamide (setting [1]), with lipoamide (arsenate co-treatment: none) and in the assay with potassium arsenate were -0.0161, -0.0919 and -0.0698, respectively.

For the target KBTBD4 (UniProt Q9NVX7), the thermal stability z-score is 0.389 with lipoamide (setting [1]), -0.408 in the assay with lipoamide (arsenate co-treatment: none) and 0.259 with potassium arsenate.

In the case of KBTBD6 (UniProt Q86V97), the thermal stability z-score was -0.502 with lipoamide (setting [1]), 0.182 with lipoamide (arsenate co-treatment: none) and -1.11 with potassium arsenate.

For the target KCMF1 (UniProt Q9P0J7), the thermal stability z-score with lipoamide (setting [1]) was -0.251; with lipoamide (arsenate co-treatment: none), -0.483; in the assay with potassium arsenate it was 0.636.

Turning to KCNAB2 (UniProt Q13303), the thermal stability z-score with lipoamide (setting [1]) was 0.221; with lipoamide (arsenate co-treatment: none) it was 0.281; in the assay with potassium arsenate it was 0.237.

For KCNK1 (UniProt O00180), the thermal stability z-score is -1.31 with lipoamide (setting [1]), 0.686 with lipoamide (arsenate co-treatment: none) and -1.18 with potassium arsenate.

For the target KCTD1 (UniProt Q719H9), the thermal stability z-score with lipoamide (setting [1]) is 1.16; with lipoamide (arsenate co-treatment: none) it was 0.0871; in the assay with potassium arsenate, -1.07.

KCTD3 (UniProt Q9Y597): the thermal stability z-score with lipoamide (setting [1]) is 0.366; with lipoamide (arsenate co-treatment: none), 0.263; with potassium arsenate, -0.15.

Turning to KCTD5 (UniProt Q9NXV2), the thermal stability z-score in the assay with lipoamide (setting [1]) was -1.92; with lipoamide (arsenate co-treatment: none), -1.4; with potassium arsenate it was -1.43.

Turning to KCTD9 (UniProt Q7L273), the thermal stability z-score with lipoamide (setting [1]) was 0.34; with lipoamide (arsenate co-treatment: none) it was 0.375; in the assay with potassium arsenate, -0.315.

For the target KCTD10 (UniProt Q9H3F6), the thermal stability z-score was 0.997 with lipoamide (setting [1]), 0.63 with lipoamide (arsenate co-treatment: none) and 1.06 with potassium arsenate.

Consider KCTD12 (UniProt Q96CX2), for which the thermal stability z-score with lipoamide (setting [1]) amounted to 0.867; in the assay with lipoamide (arsenate co-treatment: none), 0.7; in the assay with potassium arsenate, 1.37.

As to KCTD15 (UniProt Q96SI1), the figures for the thermal stability z-score with lipoamide (setting [1]), with lipoamide (arsenate co-treatment: none) and with potassium arsenate were -0.377, -0.174 and -0.89, respectively.

Regarding KCTD20 (UniProt Q7Z5Y7), the thermal stability z-score is -0.132 with lipoamide (setting [1]), -0.0693 in the assay with lipoamide (arsenate co-treatment: none) and -0.0752 with potassium arsenate.

For KDELC1 (UniProt Q6UW63), the thermal stability z-score with lipoamide (setting [1]) is -2.9; with lipoamide (arsenate co-treatment: none), -2.19; with potassium arsenate, 0.422.

KDELC2 (UniProt Q7Z4H8): the thermal stability z-score with lipoamide (setting [1]) was -4.05; in the assay with lipoamide (arsenate co-treatment: none), -2.72; with potassium arsenate, 0.334.

For KDM1A (UniProt O60341), the thermal stability z-score with lipoamide (setting [1]) is 1.9; with lipoamide (arsenate co-treatment: none), 2.21; with potassium arsenate, -1.3.

Regarding KDM3A (UniProt Q9Y4C1), the thermal stability z-score was 0.00835 with lipoamide (setting [1]), -0.0932 with lipoamide (arsenate co-treatment: none) and -0.0481 in the assay with potassium arsenate.

For the target KDM3B (UniProt Q7LBC6), the thermal stability z-score with lipoamide (setting [1]) was 0.258; with lipoamide (arsenate co-treatment: none) it was -0.0129; in the assay with potassium arsenate it was 0.0976.

In the case of KDM4A (UniProt O75164), the results for the thermal stability z-score in the assay with lipoamide (setting [1]), with lipoamide (arsenate co-treatment: none) and in the assay with potassium arsenate were -0.16, -0.11 and -0.178, respectively.

Consider KDM5C (UniProt P41229), for which the thermal stability z-score was 0.0486 with lipoamide (setting [1]), -0.0414 with lipoamide (arsenate co-treatment: none) and -0.2 with potassium arsenate.

(Values after the supplement of paper PMC12463676, “Small-molecule dissolution of stress granules by redox modulation benefits ALS models” (Nature Chemical Biology, 2025).)
